According to article PMC9186362, “Design and biological evaluation of substituted 5,7-dihydro-6H-indolo[2,3-c]quinolin-6-one as novel selective Haspin inhibitors” (Journal of Enzyme Inhibition and Medicinal Chemistry, 2022):

Key:
RnDYRK1A = RnDYRK1A (Rattus norvegicus, UniProt Q63470); assay: ADP-Glo kinase assay; type: biochemical, Rattus norvegicus (Rn); settings: for remaining activity: mean n = 2, % of maximum activity of DMSO control, read-out: % Residual activity at 1 μM DYRK1A; for Selectivity index DYRK/Haspin: IC50 DYRK1A/IC50 Haspin; for IC50: dose-response curve, each point in duplicate, read-out: Kinase inhibition (IC50) DYRK1A
Procedure: (§1) Kinase activities were determined using the ADP-Glo methodology (ADP-Glo Kinase Assay; Promega) according to the assay described by Nguyen et al.[32] except for MmCLK1. The later was assayed in the following buffer: 10 mM MgCl2, 1 mM EGTA, 1 mM DTT, 25 mM Tris-HCl pH 7.5, 50 µg/ml heparin, 0.15 mg/ml BSA, with 0.027 µg/µl of the following peptide: GRSRSRSRSRSR as substrate.

MmCLK1 = MmCLK1 (Mus musculus, UniProt P22518); assay: ADP-Glo kinase assay; type: biochemical, Mus musculus (Mm); settings: for remaining activity at 1 µM: mean n = 2, % of maximum activity of DMSO control, read-out: % Residual activity at 1 μM CLK1; for Selectivity index CLK1/Haspin: IC50 CLK1/IC50 Haspin; for IC50: dose-response curve, each point in duplicate, read-out: Kinase inhibition (IC50) CLK1
Sequence of MmCLK1 (P22518 whole entry): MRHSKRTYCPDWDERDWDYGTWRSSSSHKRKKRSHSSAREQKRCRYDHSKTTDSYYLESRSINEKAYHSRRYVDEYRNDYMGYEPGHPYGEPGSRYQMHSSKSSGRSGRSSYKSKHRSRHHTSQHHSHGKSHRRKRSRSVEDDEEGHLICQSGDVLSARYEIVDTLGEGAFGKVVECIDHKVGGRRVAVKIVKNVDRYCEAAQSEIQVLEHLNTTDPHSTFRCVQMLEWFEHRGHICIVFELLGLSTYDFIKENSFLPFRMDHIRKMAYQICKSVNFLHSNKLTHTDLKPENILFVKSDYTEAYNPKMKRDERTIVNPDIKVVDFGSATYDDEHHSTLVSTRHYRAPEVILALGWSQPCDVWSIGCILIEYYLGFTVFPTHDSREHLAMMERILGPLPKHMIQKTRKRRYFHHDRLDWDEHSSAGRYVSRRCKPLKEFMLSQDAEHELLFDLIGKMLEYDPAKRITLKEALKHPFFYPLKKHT
Procedure: as §1

HsPIM1 = HsPIM1 (Homo sapiens, UniProt P11309); assay: ADP-Glo kinase assay; type: biochemical, Homo sapiens (Hs); settings: mean n = 2, % of maximum activity of DMSO control, read-out: % Residual activity at 1 μM PIM1
Sequence of HsPIM1 (P11309 whole entry): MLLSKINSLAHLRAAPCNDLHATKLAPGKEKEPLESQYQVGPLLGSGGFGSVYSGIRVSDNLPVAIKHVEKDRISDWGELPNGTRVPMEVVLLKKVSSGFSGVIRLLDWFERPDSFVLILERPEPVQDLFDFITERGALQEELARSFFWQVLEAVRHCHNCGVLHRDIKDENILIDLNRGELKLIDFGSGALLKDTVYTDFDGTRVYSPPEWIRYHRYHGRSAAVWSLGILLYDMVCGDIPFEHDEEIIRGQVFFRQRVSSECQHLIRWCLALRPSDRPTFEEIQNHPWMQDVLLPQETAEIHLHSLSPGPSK
Procedure: as §1

HsCdk2/Cyc A = HsCdk2/Cyc A (Homo sapiens, UniProt P24941); assay: ADP-Glo kinase assay; type: biochemical, Homo sapiens (Hs); settings: mean n = 2, % of maximum activity of DMSO control, read-out: % Residual activity at 1 μM CDK2
Procedure: as §1

HsCdk5/p25 = HsCdk5/p25 (Homo sapiens, UniProt Q00535); assay: ADP-Glo kinase assay; type: biochemical, Homo sapiens (Hs); settings: mean n = 2, % of maximum activity of DMSO control, read-out: % Residual activity at 1 μM CDK5
Sequence of HsCdk5/p25 (Q00535 whole entry): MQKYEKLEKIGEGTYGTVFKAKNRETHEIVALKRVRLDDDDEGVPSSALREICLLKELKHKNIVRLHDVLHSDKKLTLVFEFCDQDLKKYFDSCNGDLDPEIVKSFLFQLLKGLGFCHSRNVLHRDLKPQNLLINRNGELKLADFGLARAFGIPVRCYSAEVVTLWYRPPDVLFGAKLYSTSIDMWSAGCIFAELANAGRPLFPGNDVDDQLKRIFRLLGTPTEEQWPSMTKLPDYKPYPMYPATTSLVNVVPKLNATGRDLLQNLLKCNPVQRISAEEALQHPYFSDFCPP
Sequence of HsCdk5/p25 (Q15078 99-307 partner limits assumed): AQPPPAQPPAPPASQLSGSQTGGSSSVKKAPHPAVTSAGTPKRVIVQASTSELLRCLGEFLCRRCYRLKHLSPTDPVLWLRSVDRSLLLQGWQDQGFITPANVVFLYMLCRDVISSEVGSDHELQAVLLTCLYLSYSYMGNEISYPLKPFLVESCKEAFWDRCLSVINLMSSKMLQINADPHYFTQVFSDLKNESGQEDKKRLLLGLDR
Procedure: as §1

HsGSK3β = HsGSK3β (Homo sapiens, UniProt P49841); assay: ADP-Glo kinase assay; type: biochemical, Homo sapiens (Hs); settings: mean n = 2, % of maximum activity of DMSO control, read-out: % Residual activity at 1 μM GSK3β
Sequence of HsGSK3β (P49841 whole entry): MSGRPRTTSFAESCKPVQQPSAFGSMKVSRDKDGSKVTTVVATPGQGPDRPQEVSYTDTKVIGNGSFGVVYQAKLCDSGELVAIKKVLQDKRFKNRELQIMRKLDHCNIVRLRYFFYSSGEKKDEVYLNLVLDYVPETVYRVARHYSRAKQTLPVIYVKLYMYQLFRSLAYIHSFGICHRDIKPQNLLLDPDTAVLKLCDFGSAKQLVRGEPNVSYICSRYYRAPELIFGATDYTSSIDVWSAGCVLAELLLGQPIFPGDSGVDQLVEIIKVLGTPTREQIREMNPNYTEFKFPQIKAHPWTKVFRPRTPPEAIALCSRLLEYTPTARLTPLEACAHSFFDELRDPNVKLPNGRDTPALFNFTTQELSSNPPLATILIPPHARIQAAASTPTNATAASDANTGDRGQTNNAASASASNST
Procedure: as §1

HsCdk9/Cyc E = HsCdk9/Cyc E (Homo sapiens, UniProt P50750); assay: ADP-Glo kinase assay; type: biochemical, Homo sapiens (Hs); settings: mean n = 2, % of maximum activity of DMSO control, read-out: % Residual activity at 1 μM CDK9
Sequence of HsCdk9/Cyc E (P50750 whole entry): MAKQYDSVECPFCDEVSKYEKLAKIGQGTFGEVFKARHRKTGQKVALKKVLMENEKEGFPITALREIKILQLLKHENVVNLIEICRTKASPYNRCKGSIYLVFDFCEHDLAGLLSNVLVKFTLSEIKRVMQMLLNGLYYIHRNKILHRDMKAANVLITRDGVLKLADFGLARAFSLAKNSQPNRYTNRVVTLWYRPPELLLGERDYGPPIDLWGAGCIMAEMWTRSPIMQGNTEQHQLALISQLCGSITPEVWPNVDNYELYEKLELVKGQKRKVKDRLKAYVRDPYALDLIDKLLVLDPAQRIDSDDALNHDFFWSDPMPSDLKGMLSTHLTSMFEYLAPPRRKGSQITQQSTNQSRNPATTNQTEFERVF
Sequence of HsCdk9/Cyc E (O60563 whole entry partner): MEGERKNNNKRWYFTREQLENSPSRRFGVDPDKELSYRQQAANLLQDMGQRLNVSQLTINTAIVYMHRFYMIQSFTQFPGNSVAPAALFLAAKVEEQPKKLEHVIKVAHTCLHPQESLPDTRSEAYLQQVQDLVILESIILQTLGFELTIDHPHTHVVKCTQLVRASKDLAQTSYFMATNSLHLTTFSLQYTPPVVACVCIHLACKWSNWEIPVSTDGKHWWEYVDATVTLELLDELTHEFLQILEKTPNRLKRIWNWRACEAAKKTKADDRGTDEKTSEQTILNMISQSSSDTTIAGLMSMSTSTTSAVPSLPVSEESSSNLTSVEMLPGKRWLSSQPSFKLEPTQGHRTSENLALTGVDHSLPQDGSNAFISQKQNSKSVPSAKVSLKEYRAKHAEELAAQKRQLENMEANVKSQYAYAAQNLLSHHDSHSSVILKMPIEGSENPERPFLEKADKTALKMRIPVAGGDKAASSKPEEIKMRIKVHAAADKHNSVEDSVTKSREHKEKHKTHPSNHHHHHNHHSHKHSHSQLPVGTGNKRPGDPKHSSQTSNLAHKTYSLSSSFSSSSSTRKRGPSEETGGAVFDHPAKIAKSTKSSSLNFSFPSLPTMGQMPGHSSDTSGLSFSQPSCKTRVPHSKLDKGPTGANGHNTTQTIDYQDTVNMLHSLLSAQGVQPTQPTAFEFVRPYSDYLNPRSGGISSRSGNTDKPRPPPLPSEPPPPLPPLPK
Procedure: as §1

HsHaspin = biological target: T1, HsHaspin (Homo sapiens, UniProt Q8TF76); assay: ADP-Glo kinase assay; type: biochemical, Homo sapiens (Hs); settings: for remaining activity at 1 µM: mean n = 2, % of maximum activity of DMSO control, read-out: % Residual activity at 1 μM Haspin; for IC50: dose-response curve, each point in duplicate, read-out: Kinase inhibition (IC50) Haspin
T1 sequence (Q8TF76 1-798): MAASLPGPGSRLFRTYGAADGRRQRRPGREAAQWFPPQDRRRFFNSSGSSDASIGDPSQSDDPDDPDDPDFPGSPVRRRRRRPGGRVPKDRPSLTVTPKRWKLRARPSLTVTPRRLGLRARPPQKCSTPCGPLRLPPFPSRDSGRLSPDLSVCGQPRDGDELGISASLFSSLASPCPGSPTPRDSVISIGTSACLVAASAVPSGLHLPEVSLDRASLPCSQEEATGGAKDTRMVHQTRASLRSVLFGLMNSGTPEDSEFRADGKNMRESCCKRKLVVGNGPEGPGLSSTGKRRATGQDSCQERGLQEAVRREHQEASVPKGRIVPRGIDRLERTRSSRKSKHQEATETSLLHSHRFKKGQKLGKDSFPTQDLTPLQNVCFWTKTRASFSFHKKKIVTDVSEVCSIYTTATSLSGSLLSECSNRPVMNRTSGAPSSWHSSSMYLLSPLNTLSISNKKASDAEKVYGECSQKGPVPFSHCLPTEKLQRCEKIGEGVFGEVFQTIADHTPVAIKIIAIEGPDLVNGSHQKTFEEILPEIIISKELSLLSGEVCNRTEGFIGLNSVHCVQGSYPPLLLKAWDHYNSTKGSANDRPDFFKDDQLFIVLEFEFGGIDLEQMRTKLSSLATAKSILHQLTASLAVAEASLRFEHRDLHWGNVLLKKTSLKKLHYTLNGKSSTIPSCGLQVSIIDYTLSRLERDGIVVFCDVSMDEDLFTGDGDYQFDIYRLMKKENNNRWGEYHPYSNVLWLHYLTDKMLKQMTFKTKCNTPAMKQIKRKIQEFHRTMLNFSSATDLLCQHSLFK
Procedure: as §1

Row | Structure (SMILES) | remaining activity (RnDYRK1A) | melting point | remaining activity at 1 µM (MmCLK1) | remaining activity at 1 µM (HsPIM1) | remaining activity at 1 µM (HsCdk2/Cyc A) | remaining activity at 1 µM (HsCdk5/p25) | remaining activity at 1 µM (HsGSK3β) | remaining activity at 1 µM (HsCdk9/Cyc E) | remaining activity at 1 µM (HsHaspin) | Selectivity index DYRK/Haspin (RnDYRK1A) | IC50 (RnDYRK1A) | Selectivity index CLK1/Haspin (MmCLK1) | IC50 (MmCLK1) | IC50 (HsHaspin)
1 | O=c1[nH]c2cc(O)ccc2c2c1[nH]c1ccccc12 [Compound 47, 3-Hydroxy-5,7-dihydro-6H-indolo[2,3-c]quinolin-6-one] | 33% | 238 to 240 °C (dec.) | 22% | 37% | 61% | 59% | 47% | 20% | 28% | – | – | – | – | –
2 | COc1ccc2c(c1)[nH]c1c(=O)[nH]c3ccccc3c12 [Compound 58, 9-Methoxy-5,7-dihydro-6H-indolo[2,3-c]quinolin-6-one] | 55% | 235 to 237 °C | 49% | 48% | 62% | 55% | 51% | 55% | 59% | – | – | – | – | –
3 | COc1ccc2[nH]c3c(=O)[nH]c4cc(OC)c(OC)cc4c3c2c1 [Compound 52, 2,3,10-Trimethoxy-5,7-dihydro-6H-indolo[2,3-c]quinolin-6-one] | 5% | 205 to 208 °C | 1% | 29% | 58% | 63% | 22% | 37% | 2% | 15 | 242 nM | 5 | 78 nM | 16 nM
4 | COc1ccc2[nH]c3c(=O)[nH]c4ccc(C(F)(F)F)cc4c3c2c1 [Compound 53, 10-Methoxy-2-(trifluoromethyl)-5,7-dihydro-6H-indolo[2,3-c]quinolin-6-one] | 36% | 241 to 244 °C | 11% | 31% | 76% | 56% | 63% | 56% | 33% | – | – | – | – | –
5 | COc1ccc2c(c1)c1c3cc(O)ccc3[nH]c(=O)c1n2C [Compound 62, 2-Hydroxy-10-methoxy-7-methyl-5,7-dihydro-6H-indolo[2,3-c]quinolin-6-one] | 2% | > 250 °C | 0% | 75% | 31% | 22% | 31% | 6% | 0% | 7 | 131 nM | 7 | 124 nM | 18 nM
6 | COc1ccc2[nH]c(=O)c3[nH]c4ccc(F)cc4c3c2c1 [Compound 60, 10-Fluoro-2-methoxy-5,7-dihydro-6H-indolo[2,3-c]quinolin-6-one] | 44% | 135 to 136 °C | 31% | 100% | 97% | 100% | 100% | 100% | 9% | 8 | 143 nM | 6 | 122 nM | 19 nM
7 | O=c1[nH]c2ccccc2c2c1[nH]c1ccccc12 [Compound 45, 5,7-Dihydro-6H-indolo[2,3-c]quinolin-6-one] | 61% | – | 67% | 86% | 100% | 100% | 100% | 63% | 44% | – | – | – | – | –
8 | COc1ccc2c(c1)c1c3cc(N(C)C)ccc3[nH]c(=O)c1n2C [Compound 64, 2-(Dimethylamino)-10-methoxy-7-methyl-5,7-dihydro-6H-indolo[2,3-c]quinolin-6-one] | 19% | 231 to 234 °C | 11% | 82% | 100% | 100% | 81% | 59% | 39% | – | – | – | – | –
9 | COc1ccc2c(c1)[nH]c1c(=O)[nH]c3ccc(OC)cc3c12 [Compound 59, 2,9-Dimethoxy-5,7-dihydro-6H-indolo[2,3-c]quinolin-6-one] | 21% | 235 to 237 °C | 12% | 34% | 74% | 51% | 41% | 41% | 13% | 2 | 73 nM | 3 | 94 nM | 30 nM
10 | COc1ccc2c(c1)c1c3cc(C(F)(F)F)ccc3[nH]c(=O)c1n2C [Compound 63, 10-Methoxy-7-methyl-2-(trifluoromethyl)-5,7-dihydro-6H-Indolo[2,3-c]quinolin-6-one] | 29% | – | 19% | 42% | 67% | 68% | 44% | 45% | 51% | – | – | – | – | –
11 | COc1ccc2[nH]c3c(=O)[nH]c4ccc(NC(C)=O)cc4c3c2c1 [Compound 57, N-(10-Methoxy-6-oxo-6,7-dihydro-5H-indolo[2,3-c]quinolin-2-yl)acetamide] | 10% | 242 to 245 °C | 2% | 37% | 100% | 100% | 58% | 72% | 3% | 8 | 280 nM | 8 | 259 nM | 34 nM
